How the values were obtained:
[1] = biological target: T1, Cysteinyl leukotriene receptor 1 (Homo sapiens, UniProt Q9Y271); assay type: cell membranes, CHO-K1, Membrane; settings: cho-k1; further: in other assays of this panel Not Active means under 50% inhibition at 10 µM
T1 sequence (Q9Y271 whole entry): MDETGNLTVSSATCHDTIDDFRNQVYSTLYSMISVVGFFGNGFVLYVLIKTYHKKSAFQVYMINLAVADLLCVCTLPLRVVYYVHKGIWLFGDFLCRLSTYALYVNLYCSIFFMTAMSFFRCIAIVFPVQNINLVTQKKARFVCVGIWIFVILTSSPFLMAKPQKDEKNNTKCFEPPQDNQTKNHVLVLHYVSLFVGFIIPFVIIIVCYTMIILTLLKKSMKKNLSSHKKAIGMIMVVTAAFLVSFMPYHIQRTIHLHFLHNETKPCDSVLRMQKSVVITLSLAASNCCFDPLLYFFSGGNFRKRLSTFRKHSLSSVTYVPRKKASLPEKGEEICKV

[2] = biological target: T2, Muscarinic acetylcholine receptor M5 (Homo sapiens, UniProt P08912); assay type: cell membranes, CHO-K1, Membrane; settings: cho-k1; further: in other assays of this panel Not Active means under 50% inhibition at 10 µM
T2 sequence (P08912 whole entry): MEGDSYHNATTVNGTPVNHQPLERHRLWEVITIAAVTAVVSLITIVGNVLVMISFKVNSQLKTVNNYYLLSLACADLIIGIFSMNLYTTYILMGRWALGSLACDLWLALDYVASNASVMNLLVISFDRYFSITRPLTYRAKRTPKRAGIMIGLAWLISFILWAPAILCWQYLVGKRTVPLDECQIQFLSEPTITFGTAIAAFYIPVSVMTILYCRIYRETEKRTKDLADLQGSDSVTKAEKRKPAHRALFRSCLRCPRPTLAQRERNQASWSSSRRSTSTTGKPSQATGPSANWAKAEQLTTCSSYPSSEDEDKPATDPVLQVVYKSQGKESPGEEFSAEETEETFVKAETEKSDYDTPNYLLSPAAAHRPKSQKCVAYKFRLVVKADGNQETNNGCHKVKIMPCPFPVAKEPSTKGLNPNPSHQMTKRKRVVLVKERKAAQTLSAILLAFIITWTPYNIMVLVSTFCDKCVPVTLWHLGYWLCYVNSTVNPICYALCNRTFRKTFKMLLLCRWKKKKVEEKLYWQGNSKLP

[3] = biological target: Tyrosine-protein kinase Fyn (Homo sapiens, UniProt P06241); assay: biochemical; assay type: cell-based, Insect cells; settings: insect cells;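 further: enzymatic inhibition of Fyn kinase activity measured with Poly(Glu:Tyr) as the phosphorylation substrate; in other assays of this panel Not Active means under 50% inhibition at 10 µM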
Chain of Tyrosine-protein kinase Fyn (P06241 whole entry): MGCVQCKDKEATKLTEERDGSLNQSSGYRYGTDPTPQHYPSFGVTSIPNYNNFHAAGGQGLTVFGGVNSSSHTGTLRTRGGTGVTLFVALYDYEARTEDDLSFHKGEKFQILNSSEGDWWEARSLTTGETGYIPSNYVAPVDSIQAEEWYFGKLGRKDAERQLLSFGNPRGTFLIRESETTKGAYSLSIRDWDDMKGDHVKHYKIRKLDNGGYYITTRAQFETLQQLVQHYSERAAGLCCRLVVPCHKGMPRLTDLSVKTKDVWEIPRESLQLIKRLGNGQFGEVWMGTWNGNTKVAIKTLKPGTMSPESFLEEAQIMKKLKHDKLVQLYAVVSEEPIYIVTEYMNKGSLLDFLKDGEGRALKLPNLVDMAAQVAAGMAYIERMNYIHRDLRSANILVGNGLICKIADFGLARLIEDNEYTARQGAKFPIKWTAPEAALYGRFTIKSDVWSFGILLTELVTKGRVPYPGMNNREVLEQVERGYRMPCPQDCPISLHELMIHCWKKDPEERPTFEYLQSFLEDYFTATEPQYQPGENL

[4] = biological target: Protein kinase C alpha type (Homo sapiens, UniProt P17252); assay type: cell-based; settings: sf9;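 further: inhibition of PKCalpha kinase activity measured in an enzyme assay with histone as the phosphorylation substrate; in other assays of this panel Not Active means under 50% inhibition at 10 µM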
[5] = DRUGMATRIX: GABAA, Chloride Channel, TBOB radioligand binding (ligand: [3H] TBOB); assay type: cell membranes, Rattus norvegicus, Wistar, Cerebral cortex, Membrane; settings: Not Active = under 50% inhibition at 10 µM
[6] = biological target: Kappa-type opioid receptor (Homo sapiens, UniProt P41145); assay: DRUGMATRIX: Opiate kappa (OP2, KOP) radioligand binding (ligand: [3H] Diprenorphine); assay type: cell membranes, HEK293, Membrane; settings: hek293; Not Active = under 50% inhibition at 10 µM
Chain of Kappa-type opioid receptor (P41145 whole entry): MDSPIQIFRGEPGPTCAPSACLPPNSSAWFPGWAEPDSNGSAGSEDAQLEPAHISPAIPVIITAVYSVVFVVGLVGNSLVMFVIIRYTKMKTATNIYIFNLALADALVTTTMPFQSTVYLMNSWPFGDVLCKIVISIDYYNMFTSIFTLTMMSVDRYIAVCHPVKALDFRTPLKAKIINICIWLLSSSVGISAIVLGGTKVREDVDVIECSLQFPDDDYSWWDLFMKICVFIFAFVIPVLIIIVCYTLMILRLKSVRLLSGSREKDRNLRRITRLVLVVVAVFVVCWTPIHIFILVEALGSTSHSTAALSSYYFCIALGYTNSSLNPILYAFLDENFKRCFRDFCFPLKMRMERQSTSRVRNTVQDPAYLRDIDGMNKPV

Adenosine receptor A3 = biological target: T3, Adenosine receptor A3 (Homo sapiens, UniProt P0DMS8); assay type: cell membranes, CHO-K1, Membrane
T3 sequence (P0DMS8 whole entry): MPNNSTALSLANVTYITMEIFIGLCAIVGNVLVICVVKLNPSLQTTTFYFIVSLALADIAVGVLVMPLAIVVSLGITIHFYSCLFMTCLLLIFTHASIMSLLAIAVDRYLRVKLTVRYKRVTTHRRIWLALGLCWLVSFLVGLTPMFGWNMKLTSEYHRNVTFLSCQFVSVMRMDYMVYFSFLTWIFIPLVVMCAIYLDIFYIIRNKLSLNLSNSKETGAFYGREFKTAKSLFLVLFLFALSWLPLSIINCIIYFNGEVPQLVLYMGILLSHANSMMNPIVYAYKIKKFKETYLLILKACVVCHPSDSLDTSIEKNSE

[7] = DRUGMATRIX: Potassium Channel [KATP] radioligand binding (ligand: [3H] Glyburide); assay type: cell membranes, Membrane; settings: hit-t15; Not Active = under 50% inhibition at 10 µM
[8] = biological target: Beta-2 adrenergic receptor (Homo sapiens, UniProt P07550); assay: DRUGMATRIX: Adrenergic beta2 radioligand binding (ligand: [3H] CGP-12177); assay type: cell membranes, Membrane; settings: cho; Not Active = under 50% inhibition at 10 µM
Chain of Beta-2 adrenergic receptor (P07550 whole entry): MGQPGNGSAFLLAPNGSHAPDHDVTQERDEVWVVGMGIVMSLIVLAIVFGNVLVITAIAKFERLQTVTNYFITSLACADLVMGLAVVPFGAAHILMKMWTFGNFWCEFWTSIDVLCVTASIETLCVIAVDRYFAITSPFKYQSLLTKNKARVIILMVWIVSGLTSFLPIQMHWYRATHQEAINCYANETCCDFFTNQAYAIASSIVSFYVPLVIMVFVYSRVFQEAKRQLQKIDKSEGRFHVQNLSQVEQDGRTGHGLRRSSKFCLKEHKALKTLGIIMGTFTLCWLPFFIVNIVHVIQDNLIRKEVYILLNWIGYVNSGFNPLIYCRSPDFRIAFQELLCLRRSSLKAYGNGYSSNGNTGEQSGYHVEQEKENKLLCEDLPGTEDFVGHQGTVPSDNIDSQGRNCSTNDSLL

[9] = biological target: Vascular endothelial growth factor receptor 1 (Homo sapiens, UniProt P17948); assay type: cell-based; settings: huvec; further: in other assays of this panel Not Active means under 50% inhibition at 10 µM
Chain of Vascular endothelial growth factor receptor 1 (P17948 whole entry): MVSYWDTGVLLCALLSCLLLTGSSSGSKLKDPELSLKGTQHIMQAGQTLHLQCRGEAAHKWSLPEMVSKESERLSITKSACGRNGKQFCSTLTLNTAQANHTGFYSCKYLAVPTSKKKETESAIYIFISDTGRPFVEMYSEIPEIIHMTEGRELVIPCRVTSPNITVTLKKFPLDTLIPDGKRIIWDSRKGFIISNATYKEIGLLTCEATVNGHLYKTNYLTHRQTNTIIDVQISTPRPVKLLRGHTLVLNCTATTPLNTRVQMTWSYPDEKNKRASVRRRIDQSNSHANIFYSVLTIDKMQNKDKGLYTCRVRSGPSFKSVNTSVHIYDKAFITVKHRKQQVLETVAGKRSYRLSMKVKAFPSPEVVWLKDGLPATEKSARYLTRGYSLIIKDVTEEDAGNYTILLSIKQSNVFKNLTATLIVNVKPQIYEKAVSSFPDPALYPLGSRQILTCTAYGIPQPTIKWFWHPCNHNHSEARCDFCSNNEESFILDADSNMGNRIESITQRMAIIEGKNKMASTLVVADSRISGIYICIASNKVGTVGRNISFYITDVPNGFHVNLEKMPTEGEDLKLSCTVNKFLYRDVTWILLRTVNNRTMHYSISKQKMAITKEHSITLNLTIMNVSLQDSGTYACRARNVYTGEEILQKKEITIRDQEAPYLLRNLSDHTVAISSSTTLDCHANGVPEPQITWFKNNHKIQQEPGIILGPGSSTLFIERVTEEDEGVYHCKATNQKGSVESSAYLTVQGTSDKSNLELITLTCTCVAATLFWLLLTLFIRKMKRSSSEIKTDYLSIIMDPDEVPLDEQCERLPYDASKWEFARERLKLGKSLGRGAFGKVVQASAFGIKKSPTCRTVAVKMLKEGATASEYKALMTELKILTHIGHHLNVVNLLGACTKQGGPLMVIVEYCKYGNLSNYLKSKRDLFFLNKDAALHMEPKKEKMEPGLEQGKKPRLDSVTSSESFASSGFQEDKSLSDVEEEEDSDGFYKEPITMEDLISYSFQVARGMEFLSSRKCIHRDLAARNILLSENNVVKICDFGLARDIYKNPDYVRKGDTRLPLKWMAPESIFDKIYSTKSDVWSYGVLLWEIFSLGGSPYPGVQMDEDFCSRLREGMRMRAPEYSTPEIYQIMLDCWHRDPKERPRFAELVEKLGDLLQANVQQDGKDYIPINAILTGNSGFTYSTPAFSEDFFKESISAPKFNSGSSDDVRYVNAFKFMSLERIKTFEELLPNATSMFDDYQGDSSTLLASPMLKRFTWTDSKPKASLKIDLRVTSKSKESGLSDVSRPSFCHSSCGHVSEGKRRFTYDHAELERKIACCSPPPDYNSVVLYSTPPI

Leukotriene C4 synthase = biological target: T4, Leukotriene C4 synthase (Cavia porcellus, UniProt A6XA80); assay: biochemical; assay type: tissue-based, Lung
T4 sequence (A6XA80 whole entry): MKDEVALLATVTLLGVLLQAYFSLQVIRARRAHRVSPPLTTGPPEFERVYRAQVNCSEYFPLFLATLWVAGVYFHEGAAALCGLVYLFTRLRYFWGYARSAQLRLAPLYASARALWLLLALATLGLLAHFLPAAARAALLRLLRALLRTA

[10] = biological target: T5, 5-hydroxytryptamine receptor 1A (Rattus norvegicus, UniProt P19327); assay type: cell membranes, CHO-K1, Membrane; settings: cho-k1; further: in other assays of this panel Not Active means under 50% inhibition at 10 µM
T5 sequence (P19327 whole entry): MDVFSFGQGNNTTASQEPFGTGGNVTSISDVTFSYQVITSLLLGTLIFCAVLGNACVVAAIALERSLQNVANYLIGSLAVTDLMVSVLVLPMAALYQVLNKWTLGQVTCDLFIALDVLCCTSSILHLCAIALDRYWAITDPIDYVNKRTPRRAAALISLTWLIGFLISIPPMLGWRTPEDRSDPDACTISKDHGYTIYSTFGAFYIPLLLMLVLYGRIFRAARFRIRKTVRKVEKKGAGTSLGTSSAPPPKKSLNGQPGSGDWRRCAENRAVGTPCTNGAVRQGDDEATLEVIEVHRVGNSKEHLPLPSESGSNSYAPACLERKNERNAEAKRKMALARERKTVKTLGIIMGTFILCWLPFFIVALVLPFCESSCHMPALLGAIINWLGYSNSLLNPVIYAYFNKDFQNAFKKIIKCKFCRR

[11] = biological target: Aldo-keto reductase family 1 member B1 (Rattus norvegicus, UniProt P07943); assay type: tissue-based, Lens of camera-type eye
Melanocortin receptor 3 = Melanocortin receptor 3 (Homo sapiens, UniProt P41968); assay type: cell membranes, Membrane; settings: hek293; further: in other assays of this panel Not Active means under 50% inhibition at 10 µM
Chain of Melanocortin receptor 3 (P41968 whole entry): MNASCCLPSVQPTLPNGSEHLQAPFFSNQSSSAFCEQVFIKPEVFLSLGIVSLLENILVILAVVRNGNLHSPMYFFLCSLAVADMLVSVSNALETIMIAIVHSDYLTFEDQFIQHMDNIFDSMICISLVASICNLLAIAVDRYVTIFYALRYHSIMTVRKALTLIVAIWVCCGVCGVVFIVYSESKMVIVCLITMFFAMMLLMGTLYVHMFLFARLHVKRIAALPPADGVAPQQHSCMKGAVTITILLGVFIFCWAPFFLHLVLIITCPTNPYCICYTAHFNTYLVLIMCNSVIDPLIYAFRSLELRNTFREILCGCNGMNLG

Carbonic anhydrase 2 = Carbonic anhydrase 2 (Homo sapiens, UniProt P00918); assay: DRUGMATRIX: Carbonic Anhydrase II enzyme inhibition (substrate: 4-Nitrophenyl acetate (4-NPA)); assay type: tissue-based, Erythrocyte; settings: erythrocyte; Not Active = under 50% inhibition at 10 µM
[12] = DRUGMATRIX: ATPase, Na+/K+ enzyme inhibition (substrate: ATP); assay type: tissue-based, Sus scrofa, Heart; settings: Not Active = under 50% inhibition at 10 µM
[13] = DRUGMATRIX: Phosphodiesterase PDE3 enzyme inhibition (substrate: [3H]cAMP + cAMP); assay type: tissue-based, Homo sapiens; settings: platelet; Not Active = under 50% inhibition at 10 µM

Structure (SMILES)	IC50 [1]	IC50 [2]	IC50 [3]	IC50 [4]	IC50 [5]	Ki [5]	IC50 [6]	IC50 [7]	Ki [7]	IC50 [8]	IC50 [9]	IC50 (Leukotriene C4 synthase)	IC50 [10]	IC50 [11]	IC50 (Melanocortin receptor 3)	IC50 (Carbonic anhydrase 2)	IC50 [12]	Ki [12]	IC50 [13]	Ki [13]	also measured
COS(C)(=O)=O [METHANESULFONIC ACID METHYL ESTER]	Not Active	Not Active	Not Active	Not Active	Not Active	Not Active	Not Active	Not Active	Not Active	Not Active	Not Active	Not Active	Not Active	Not Active	Not Active	Not Active	Not Active	Not Active	Not Active	Not Active	IC50 (Adenosine receptor A3; cho-k1): Not Active
COC(=O)c1ccc(O)cc1 [METHYLPARABEN]	Not Active	Not Active	Not Active	Not Active	Not Active	Not Active	Not Active	Not Active	Not Active	Not Active	Not Active	Not Active	Not Active	Not Active	Not Active	Not Active	Not Active	Not Active	Not Active	Not Active	IC50 (Adenosine receptor A3; cho-k1): Not Active
C[C@](N)(Cc1ccc(O)cc1)C(=O)O [METYROSINE]	Not Active	Not Active	Not Active	Not Active	Not Active	Not Active	Not Active	Not Active	Not Active	Not Active	Not Active	Not Active	Not Active	Not Active	Not Active	Not Active	Not Active	Not Active	Not Active	Not Active	IC50 (Adenosine receptor A3; cho-k1): Not Active
Clc1ccc(C(c2ccccc2Cl)C(Cl)Cl)cc1 (stereo not given) [MITOTANE]	Not Active	Not Active	Not Active	Not Active	Not Active	Not Active	Not Active	Not Active	Not Active	Not Active	Not Active	Not Active	Not Active	Not Active	Not Active	Not Active	Not Active	Not Active	Not Active	Not Active	IC50 (Adenosine receptor A3; read-out: IC50): 7.45 µM; Ki (Adenosine receptor A3; read-out: Ki): 4.21 µM
